Assay results reported in US20230054379A1, “COMPOSITION AND METHOD OF TREATMENT TO SIMU[…] THE […] EFFICACY OF OPIOIDS AND REDUCE THEIR ADDICTIVE POWER” (Centro de Investigacion Y Desarrollo de Medicamentos (CIDEM), priority 2020, published 2023).
“And” between values parts separate entries of the source, which are not always exact repeats. Equal entries are not always repeated. Where two headings read alike, the source gives them in different places. Marks after values point to notes of the source that are not given here.

Tests used:
[1] = Mechanical hypernociception dose-response in CCI rats (electronic von Frey, % MPE); format: in vivo, rat; conditions: for ED50: Rattus norvegicus, 168 h, single dose, doses given in mg/kg
[2] = Mechanical allodynia dose-response in CCI rats (von Frey filaments, % MPE); format: in vivo, rat; conditions: 7 days post-CCI
[3] = Thermal hypernociception in CCI rats (Hargreaves test, % MPE); format: in vivo, rat; conditions: for % MPE, thermal hypernociception: first administration
[4] = 22 rpm, mean ± SEM, n = 6
Experimental: Young rats (8-10 weeks) Sprague Dawley (SD) (males, 168-240 g) from the National Center for the Production of Laboratory Animals (CENPALAB, Havana, Cuba) were used, adapted for seven days to the conditions of the laboratory. The animals were kept under an alternating cycle of light and dark every 12 h, the temperature was controlled between 25-27° C. and an EMO 1001 diet established for the laboratory animals. After the adaptation period, the animals were distributed in the different groups according to their body weights. Water and food were kept available ad libitum. […] To induce tolerance/hyperalgesia to morphine, it was administered to the animals subcutaneously (10 mg/kg, 1 mUkg, s.c.) twice a day every 12 h for 10 days or saline solution (Cao, J L et al. 2005 Pharmacol Biochem and Behay. 80: 493-503), after oral administration of JM-20 or its vehicle, carboxymethylcellulose (0.5% CMC in distilled water, 10mUkg, p.o.) 1h before. Correspondingly, the following groups were constituted: CMC-SS (n=6), CMC-MOR (n=6), JM-20-SS (n=6), JM-20 (5mg/kg)-MOR (n=6) and JM-20 (20mg/kg)-MOR (n=6).

[5] = Histopathological study of sciatic nerve (Wallerian degeneration); conditions: CCI or sham rats; hematoxylin and eosin, light microscopy
[6] = Intensity of mechanical hypernociception (electronic von Frey) in CCI or sham rats after chronic morphine or saline
[7] = General behavioral evaluation of the nervous system (placing/stepping, righting, pinna, corneal reflexes; signs of CNS depression)
[8] = Morphine-induced tolerance/hyperalgesia in healthy rats (von Frey filaments, electronic von Frey, hot plate, formalin test); format: in vivo, rat
Source text: (NIH Publication No. 85-23, revised 1996).

[9] = Spontaneous withdrawal symptoms to morphine; format: in vivo, rat; conditions: JM-20 co-treatment; day 1 of withdrawal after chronic morphine
Source text: In this experiment we studied some somatic behaviors and symptoms in the rat associated with spontaneous withdrawal to morphine (jumping or escape attempts, tremors, mastication, piloerection, head shaking).

[10] = day 1, 45 min after first dose of morphine or saline, 105 min after JM-20 (20 mg/kg, p.o.) or CMC
[11] = day 5, 45 min after morphine or saline dose, 105 min after JM-20 (20 mg/kg, p.o.) or CMC
[12] = day 1, 45 min after first morphine or saline dose, 105 min after JM-20 (20 mg/kg, p.o.) or CMC
[13] = day 5, 45 min after morphine or saline, 105 min after JM-20 (20 mg/kg, p.o.) or CMC

## CN1CC[C@]23c4c5ccc(O)c4O[C@H]2[C@@H](O)C=C[C@H]3[C@H]1C5 [morphine, reference compound]
[1]; sc, morphine s.c., 7 days post-CCI
  ED50: 5.63 ± 0.8 mg/kg
[1]; morphine 3 mg/kg s.c., 14 days post-CCI after 8 repeated doses
  % MPE, intensity of mechanical hypernociception: 1.36±0.5%
[1]; morphine 3 mg/kg s.c., first administration, 7 days post-CCI
  % MPE, intensity of mechanical hypernociception: 17.67±2.8%
[1]; morphine 5 mg/kg s.c., 14 days post-CCI after 8 repeated doses
  % MPE, intensity of mechanical hypernociception: 6.10±1.0%
[1]; morphine 5 mg/kg s.c., first administration, 7 days post-CCI
  % MPE, intensity of mechanical hypernociception: 48.05±2.9%
[1]; morphine 10 mg/kg s.c., 14 days post-CCI after 8 repeated doses
  % MPE, intensity of mechanical hypernociception: 14.18±4.7%
[1]; morphine 10 mg/kg s.c., first administration, 7 days post-CCI
  % MPE, intensity of mechanical hypernociception: 72.22±4.6%
[2]; morphine 10 mg/kg s.c., first administration
  % MPE, mechanical allodynia: 100%
[3]; Rattus norvegicus, sc, 168 h, morphine s.c., single dose, 7 days post-CCI, doses given in mg/kg
  ED50: 3.17 ± 0.4 mg/kg
[3]; morphine 3 mg/kg s.c., 7 days post-CCI
  % MPE, thermal hypernociception: 30.0±13%
[3]; morphine 10 mg/kg s.c., 7 days post-CCI
  % MPE, thermal hypernociception: 95.69±3.4%
[4]; [10]
  Rota-rod motor performance (Latency sec): 16 ± 1.9^a sec
[4]; [11]
  Rota-rod motor performance (Latency sec): 57 ± 1.8 s
[4]; day 11, without medications
  Rota-rod motor performance (Latency sec): 60 s
[5]
  Qualitative histopathological changes of the sciatic nerve (Wallerian degeneration, cellularity): minimal increase in cellularity
[6]; CCI rats, morphine group (vehicle p.o.), day 7 post-surgery, prior to start of treatments
  Intensity of mechanical hypernociception, difference (Δ) of the withdrawal threshold: 41.22±1.58 grams
[6]; CCI rats, morphine group (vehicle p.o.), day 7 post-surgery, prior to start of treatments, listed as MOR
  Intensity of mechanical hypernociception, difference (Δ) of the withdrawal threshold: 41.22 ± 1.58 grams
[6]; Sham CCI rats, morphine group, day 7 post-surgery, prior to start of treatments
  Intensity of mechanical hypernociception, difference (Δ) of the withdrawal threshold: 2.06 ± 2.96≠ grams
[7]; [12]
  Corneal reflex, % of animals showing the reflex: 100%
  Pinna reflex, % of animals showing the reflex: 100%
  Placing/stepping reflex, % of animals showing the reflex: 100%
  Righting reflex, % of animals showing the reflex: 100%
[7]; [13]
  Corneal reflex, % of animals showing the reflex: 100%
  Pinna reflex, % of animals showing the reflex: 100%
  Placing/stepping reflex, % of animals showing the reflex: 100%
  Righting reflex, % of animals showing the reflex: 100%
[7]; day 11, without medications
  Corneal reflex, % of animals showing the reflex: 100%
  Pinna reflex, % of animals showing the reflex: 100%
  Placing/stepping reflex, % of animals showing the reflex: 100%
  Righting reflex, % of animals showing the reflex: 100%

## CCOC(=O)C1=C(C)NC2=C(C=Nc3ccccc3N2)C1c1ccccc1[N+](=O)[O-] (centres unmarked) [JM-20, 3-ethoxycarbonyl-2-methyl-4-(2-nitrophenyl)-4,11-dihydro-1H-pyrido [2,3-b] [1,5] benzodiazepine]
[8]; JM-20-SS group, non-injured rats
  Response to mechanical and thermal stimuli versus control group (CMC-SS): did not show differences
[8]; healthy rats, chronic morphine + JM-20 co-treatment, at 11 days
  Thermal hyperalgesia (PWL, hot plate test): prevented thermal hyperalgesia
[8]; healthy rats, morphine 10 mg/kg s.c. twice a day for 10 days, JM-20 p.o. co-treatment 1 h before
  Percentage response to 4 g VFF and 15 g VFF and withdrawal threshold (Δ): significantly reduced
[8]; tolerant/hyperalgesic rats, day 11, test dose of morphine 5 mg/kg i.p., both phases
  Nociceptive scores in the 5% formalin test: significantly improved nociceptive scores
[9]
  Spontaneous somatic withdrawal symptoms after withdrawal of morphine: significantly reduced
[1]; JM-20 2.5 mg/kg p.o., 60 minutes after first dose, 7 days post-CCI
  % MPE, intensity of mechanical hypernociception: 32.26±4.2%
[1]; JM-20 2.5 mg/kg p.o., 14 days post-CCI after repeated doses
  % MPE, intensity of mechanical hypernociception: 40.86±7.1%
[1]; JM-20 5 mg/kg p.o., 60 minutes after first dose, 7 days post-CCI
  % MPE, intensity of mechanical hypernociception: 48.02±6.3%
[1]; JM-20 5 mg/kg p.o., 14 days post-CCI after repeated doses
  % MPE, intensity of mechanical hypernociception: 38.13±9.4%
[1]; JM-20 10 mg/kg p.o., 60 minutes after first dose, 7 days post-CCI
  % MPE, intensity of mechanical hypernociception: 39.20±7.9%
[1]; JM-20 10 mg/kg p.o., 14 days post-CCI after repeated doses
  % MPE, intensity of mechanical hypernociception: 46.18±5.7%
[1]; JM-20 20 mg/kg p.o., 60 minutes after first dose, 7 days post-CCI
  % MPE, intensity of mechanical hypernociception: 58.15±7.3%
[1]; JM-20 20 mg/kg p.o., 14 days post-CCI after repeated doses
  % MPE, intensity of mechanical hypernociception: 55.28±8.3%
[1]; JM-20 p.o. for 8 days, mechanical hypernociception at days 14, 15-16 post-CCI
  Neuroadaptations (tolerance/hyperalgesia) after repeated administration: neuroadaptations (tolerance/hyperalgesia) were not observed
[1]; po, JM-20 p.o., 7 days post-CCI
  ED50: 12.4 ± 6.4 mg/kg
[2]; JM-20 2.5 mg/kg p.o., 1 h after first administration
  % MPE, mechanical allodynia: 24.97±8.5%
[2]; JM-20 5 mg/kg p.o., 1 h after first administration
  % MPE, mechanical allodynia: 50.21±7.6%
[2]; JM-20 10 mg/kg p.o., 1 h after first administration
  % MPE, mechanical allodynia: 48.68±7.6%
[2]; JM-20 20 mg/kg p.o., 1 h after first administration
  % MPE, mechanical allodynia: 64.25±9.7%
[2]; Rattus norvegicus, po, 168 h, JM-20 p.o., single dose, doses given in mg/kg
  ED50: 8.44 ± 1.9 mg/kg
[3]; JM-20 2.5-20 mg/kg p.o., after first administration or repeated doses at 14 days post-CCI
  Effect on withdrawal thresholds in the Hargreaves test: did not increase withdrawal thresholds significantly
[4]; [10]
  Rota-rod motor performance (Latency sec): 59 ± 0.5^b sec
[4]; [11]
  Rota-rod motor performance (Latency sec): 59 ± 0.5 s
[4]; day 11, without medications
  Rota-rod motor performance (Latency sec): 60 s
[5]
  Qualitative histopathological changes of the sciatic nerve (Wallerian degeneration, cellularity): still exerts its neuroprotective effect
[6]; CCI rats, SS s/c + JM-20 10 mg/kg p.o. for 5 days, day 11 post-surgery, 6 hours after last JM-20, 10 mg/kg
  Intensity of mechanical hypernociception, difference (Δ) of the withdrawal threshold: 10.68±5.89 grams and 10.68 ± 5.89*≠ grams
[6]; CCI rats, SS s/c + JM-20 10 mg/kg p.o. for 5 days, day 23 post-surgery, 12 days after discontinuation of JM-20, 10 mg/kg
  Intensity of mechanical hypernociception, difference (Δ) of the withdrawal threshold: 5.93±2.65 grams and 5.93 ± 2.65*≠ grams
[6]; CCI rats, saline (SS) s/c + JM-20 10 mg/kg p.o. group, day 7 post-surgery, prior to start of treatments
  Intensity of mechanical hypernociception, difference (Δ) of the withdrawal threshold: 41.55 ± 1.50 grams
[7]; [12]
  Corneal reflex, % of animals showing the reflex: 100%
  Pinna reflex, % of animals showing the reflex: 100%
  Placing/stepping reflex, % of animals showing the reflex: 100%
  Righting reflex, % of animals showing the reflex: 100%
[7]; [13]
  Corneal reflex, % of animals showing the reflex: 100%
  Pinna reflex, % of animals showing the reflex: 100%
  Placing/stepping reflex, % of animals showing the reflex: 100%
  Righting reflex, % of animals showing the reflex: 100%
[7]; day 11, without medications
  Corneal reflex, % of animals showing the reflex: 100%
  Pinna reflex, % of animals showing the reflex: 100%
  Placing/stepping reflex, % of animals showing the reflex: 100%
  Righting reflex, % of animals showing the reflex: 100%

## NCC1(CC(=O)O)CCCCC1 [gabapentin]
[5]
  Qualitative histopathological changes of the sciatic nerve (Wallerian degeneration, cellularity): decrease in these alterations
